We go through one molecule from patent US6013802A, “Fluorescent conjugates of metal-chelating nitrogen heterocycles” (Molecular Probes, Inc., priority 1997, dated 2000).

This data set can be described thus: Fluorescent detection of Cu2+ in seawater (high salt). The following applies: 1 μM dye in seawater; zero to 10 μM added Cu2+ (CuCl2). As for the experimental part: The metal-ion indicators of the present invention can be used to detect low levels of target ions in the presence of very high concentrations of other mono- and divalent cations. For example, a solution of a green fluorescent phenanthroline derivative (as described in Example 1) is diluted into freshly collected, unfiltered seawater to give a dye concentration of 1 μM. Using 10 mM EGTA, pH 7.20, 100 mM KCL in 10 mM MOPS as a standard, the fluorescence emission of the indicator solution is scanned from 450 nm to 650 nm in a Perkin Elmer PE-450 fluorimeter with excitation at 488 nm.

For the molecule `O=C1OC2(c3ccc(O)cc3Oc3cc(O)ccc32)c2ccc(NC(=S)Nc3cc4cccnc4c4ncccc34)cc21`, the “fluorescence emission remaining, of original emission intensity, after added Cu^2+” value was “approximately 10%”.
